± gives the expanded uncertainty stated by the source.
Experiment: activity coefficient (dimensionless); of the first substance listed, at infinite dilution; xn = mol fraction of the nth substance listed
Conditions: 101 kPa, Liquid, Chromatography, x1 = 0

Compound	activity coefficient (308.15 K)	activity coefficient (318.15 K)	activity coefficient (328.15 K)	activity coefficient (338.15 K)	activity coefficient (348.15 K)	activity coefficient (358.15 K)
Cc1ccccc1C [1,2-dimethylbenzene] + CCn1cc[n+](C)c1.CS(=O)(=O)[O-]	15 ± 1	14.6 ± 1	14.3 ± 1	14 ± 1	13.8 ± 0.9	13.5 ± 0.9
Cc1cccc(C)c1 [1,3-dimethylbenzene] + CCn1cc[n+](C)c1.CS(=O)(=O)[O-]	19.7 ± 1.3	19.1 ± 1.3	18.6 ± 1.3	18.1 ± 1.2	17.6 ± 1.2	17.1 ± 1.2
Cc1ccc(C)cc1 [1,4-dimethylbenzene] + CCn1cc[n+](C)c1.CS(=O)(=O)[O-]	18.6 ± 1.3	18.7 ± 1.3	18.7 ± 1.3	18.8 ± 1.3	18.8 ± 1.3	18.9 ± 1.3
C1COCCO1 [1,4-dioxane] + CCn1cc[n+](C)c1.CS(=O)(=O)[O-]	2.6 ± 0.18	2.63 ± 0.18	2.67 ± 0.18	2.69 ± 0.18	2.72 ± 0.19	2.73 ± 0.19
C=CCCCCCCCC [1-decene] + CCn1cc[n+](C)c1.CS(=O)(=O)[O-]	654 ± 45	584 ± 40	528 ± 36	479 ± 33	434 ± 30	–
C=CCCCCC [1-heptene] + CCn1cc[n+](C)c1.CS(=O)(=O)[O-]	148 ± 10	134 ± 9	122 ± 8	112 ± 8	102 ± 7	–
C#CCCCCC [1-heptyne] + CCn1cc[n+](C)c1.CS(=O)(=O)[O-]	14.4 ± 1	14.6 ± 1	14.5 ± 1	14.6 ± 1	14.6 ± 1	–
C#CCCCC [1-hexyne] + CCn1cc[n+](C)c1.CS(=O)(=O)[O-]	7.87 ± 0.54	8.07 ± 0.55	8.06 ± 0.55	8.29 ± 0.57	8.27 ± 0.56	–
CCC[N+](=O)[O-] [1-nitropropane] + CCn1cc[n+](C)c1.CS(=O)(=O)[O-]	2.36 ± 0.16	2.37 ± 0.16	2.37 ± 0.16	2.38 ± 0.16	2.39 ± 0.16	2.39 ± 0.16
C#CCCCCCC [1-octyne] + CCn1cc[n+](C)c1.CS(=O)(=O)[O-]	26.2 ± 1.8	26.2 ± 1.8	25.6 ± 1.8	25.3 ± 1.7	25.1 ± 1.7	–
CCOC(C)(C)C [2-ethoxy-2-methylpropane] + CCn1cc[n+](C)c1.CS(=O)(=O)[O-]	66.5 ± 4.6	60.8 ± 4.2	57.1 ± 3.9	53.5 ± 3.7	50 ± 3.4	–
CCC(C)(C)OC [2-methoxy-2-methylbutane] + CCn1cc[n+](C)c1.CS(=O)(=O)[O-]	40.3 ± 2.8	37.8 ± 2.6	35.8 ± 2.5	34 ± 2.3	32.6 ± 2.2	–
COC(C)(C)C [2-methoxy-2-methylpropane] + CCn1cc[n+](C)c1.CS(=O)(=O)[O-]	23.6 ± 1.6	22.5 ± 1.5	21.7 ± 1.5	20.7 ± 1.4	20 ± 1.4	–
C=C(C)c1ccccc1 [(1-methylethenyl)benzene] + CCn1cc[n+](C)c1.CS(=O)(=O)[O-]	10.7 ± 0.7	10.9 ± 0.7	11.1 ± 0.8	11.2 ± 0.8	11.3 ± 0.8	11.5 ± 0.8
CC(C)=O [acetone] + CCn1cc[n+](C)c1.CS(=O)(=O)[O-]	308 ± 21	318 ± 22	328 ± 23	338 ± 23	348 ± 24	358 ± 25
CC#N [acetonitrile] + CCn1cc[n+](C)c1.CS(=O)(=O)[O-]	0.799 ± 0.052	0.818 ± 0.053	0.841 ± 0.054	0.86 ± 0.06	0.877 ± 0.056	0.892 ± 0.057
c1ccccc1 [benzene] + CCn1cc[n+](C)c1.CS(=O)(=O)[O-]	308 ± 21	318 ± 22	328 ± 23	338 ± 23	348 ± 24	358 ± 25
C1CCCCCC1 [cycloheptane] + CCn1cc[n+](C)c1.CS(=O)(=O)[O-]	113 ± 8	99.8 ± 6.9	90.7 ± 6.2	79.9 ± 5.5	72.6 ± 5	–
C1CCCCC1 [cyclohexane] + CCn1cc[n+](C)c1.CS(=O)(=O)[O-]	83.6 ± 5.7	73.9 ± 5.1	67.6 ± 4.6	59.6 ± 4.1	53.7 ± 3.7	–
C1CCCCCCC1 [cyclooctane] + CCn1cc[n+](C)c1.CS(=O)(=O)[O-]	163 ± 11	143 ± 10	128 ± 9	114 ± 8	101 ± 7	–
C1CCCC1 [cyclopentane] + CCn1cc[n+](C)c1.CS(=O)(=O)[O-]	46.2 ± 3.2	42.2 ± 2.9	39.5 ± 2.7	36.1 ± 2.5	33 ± 2.3	–
CCCCCCCCCC [decane] + CCn1cc[n+](C)c1.CS(=O)(=O)[O-]	1320 ± 91	1180 ± 82	1040 ± 72	925 ± 64	835 ± 58	762 ± 53
CCOCC [diethyl ether] + CCn1cc[n+](C)c1.CS(=O)(=O)[O-]	19.2 ± 1.3	18.2 ± 1.2	17.5 ± 1.2	16.8 ± 1.1	16.1 ± 1.1	–
CC(C)OC(C)C [diisopropyl ether] + CCn1cc[n+](C)c1.CS(=O)(=O)[O-]	79.6 ± 5.5	74.3 ± 5.1	68.7 ± 4.7	64.8 ± 4.4	60.6 ± 4.2	–
c1ccncc1 [pyridine] + CCn1cc[n+](C)c1.CS(=O)(=O)[O-]	1.56 ± 0.1	1.57 ± 0.1	1.59 ± 0.11	1.6 ± 0.1	1.62 ± 0.11	1.64 ± 0.11

Second part, the molecule after the results:

activity coefficient (308.15 K)	activity coefficient (318.15 K)	activity coefficient (328.15 K)	activity coefficient (338.15 K)	activity coefficient (348.15 K)	activity coefficient (358.15 K)	Compound
80.3 ± 5.5	72.7 ± 5	67.5 ± 4.6	62.8 ± 4.3	58.1 ± 4	–	CCCOCCC [dipropyl ether] + CCn1cc[n+](C)c1.CS(=O)(=O)[O-]
0.489 ± 0.037	0.483 ± 0.037	0.479 ± 0.037	0.474 ± 0.037	0.47 ± 0.04	0.467 ± 0.036	CCO [ethanol] + CCn1cc[n+](C)c1.CS(=O)(=O)[O-]
18.1 ± 1.2	17.5 ± 1.2	17.1 ± 1.2	16.5 ± 1.1	16.1 ± 1.1	15.6 ± 1.1	CCc1ccccc1 [ethylbenzene] + CCn1cc[n+](C)c1.CS(=O)(=O)[O-]
378 ± 26	328 ± 23	273 ± 19	244 ± 17	–	–	CCCCCCC [heptane] + CCn1cc[n+](C)c1.CS(=O)(=O)[O-]
85.1 ± 5.8	77.1 ± 5.3	70.4 ± 4.8	63.9 ± 4.4	–	–	C=CCCCC [hex-1-ene] + CCn1cc[n+](C)c1.CS(=O)(=O)[O-]
0.223 ± 0.029	0.225 ± 0.029	0.228 ± 0.029	0.229 ± 0.029	0.232 ± 0.029	0.234 ± 0.029	CO [methanol] + CCn1cc[n+](C)c1.CS(=O)(=O)[O-]
911 ± 63	779 ± 54	690 ± 48	607 ± 42	547 ± 38	507 ± 35	CCCCCCCCC [nonane] + CCn1cc[n+](C)c1.CS(=O)(=O)[O-]
258 ± 18	228 ± 16	206 ± 14	187 ± 13	170 ± 12	–	C=CCCCCCC [oct-1-ene] + CCn1cc[n+](C)c1.CS(=O)(=O)[O-]
597 ± 41	505 ± 35	453 ± 31	388 ± 27	350 ± 24	–	CCCCCCCC [octane] + CCn1cc[n+](C)c1.CS(=O)(=O)[O-]
7.83 ± 0.53	7.66 ± 0.52	7.52 ± 0.51	7.39 ± 0.5	7.26 ± 0.5	7.14 ± 0.49	CCCC(C)=O [pentan-2-one] + CCn1cc[n+](C)c1.CS(=O)(=O)[O-]
8.08 ± 0.55	7.96 ± 0.54	7.86 ± 0.54	7.75 ± 0.53	7.63 ± 0.52	7.53 ± 0.51	CCC(=O)CC [pentan-3-one] + CCn1cc[n+](C)c1.CS(=O)(=O)[O-]
0.761 ± 0.05	0.75 ± 0.05	0.736 ± 0.049	0.724 ± 0.048	0.716 ± 0.048	0.708 ± 0.047	CCCO [propan-1-ol] + CCn1cc[n+](C)c1.CS(=O)(=O)[O-]
5.68 ± 0.39	5.71 ± 0.39	5.75 ± 0.39	5.79 ± 0.39	5.82 ± 0.4	5.85 ± 0.4	C=Cc1ccccc1 [styrene] + CCn1cc[n+](C)c1.CS(=O)(=O)[O-]

From the NIST ThermoML archive (doi:10.1016/j.jct.2012.03.005)
